The results in this text go back to paper doi:10.1101/2025.10.01.679885v1, “Kinetic and thermodynamic analysis of PKA-R–cAMP interactions in crude media using focal molography” (biorxiv, 2025).

Like-named read-outs stand apart in the source and are kept apart here.

The target in assay [1] is T1, PKA-R (bovine RIα 92-260; bRIα 92–260) (Bos taurus, UniProt P00514).
T1 construct: gene PRKAR1A; expressed in E. coli BL21 (DE3) RIL
In words: biochemical. Also on record: focal molography, PKA-R binding to immobilized cAMP analogue, multi-cycle kinetics, 20 °C, buffer A or 50% human serum. The settings on record: 20 °C, mean of three replicates; for koff: read-out: koff [10^-2 s^-1]; for kon: read-out: kon [10^5 M^-1 s^-1]. Here is the method: In order to determine the kinetic parameters of the PKA-R–cAMP interaction, multi cycle kinetic experiments were conducted in both buffer and 50% human serum at 20^◦C with intermediate regeneration. […] The sensor maintained reliable performance in both conditions, with no evidence of non-specific binding in serum. During these experiments, optimal experimental settings were refined iteratively to achieve the ideal flow rates and best transition times between association and dissociation phase. […] To mitigate this, buffer A was supplemented with bovine serum albumin (BSA) at a concentration of 1 mg/mL, which successfully eliminated sample depletion. […] Nevertheless, subtle differences in the association rate constant (kon) and dissociation rate constant (koff) are evident between the two media. These variations likely stem from the complex biological environment in serum, where interactions with additional serum components may slightly alter the binding dynamics. To ensure that the extracted kinetic parameters accurately represent the specific PKA-R–cAMP interaction, only the initial 15% of the dissociation phase was used to determine koff, thereby minimizing the influence of incomplete dissociation due to the residual sticking of the protein to the surface. Table 2 summarizes the triplicate kinetic measurements for both 6-AH-cAMP and 8-AHA-cAMP in buffer and serum. The equilibrium dissociation constants (KD) remain in the nanomolar range under all conditions. In this study, we use focal molography to investigate the interaction between the cAMP binding domain A of the bovine R subunit Iα of PKA (bRIα 92–260) (PKA-R) and cyclic AMP (cAMP) analogues in both buffer and 50% human serum. The R-subunit inhibits protein kinase activity of the catalytic subunit of PKA by direct binding. By quantifying kinetic and thermodynamic parameters across a physiological temperature range, we examine how the biological environment alters the enthalpic and entropic contributions to binding.

Assay [2] concerns the target T1, PKA-R (bovine RIα 92-260; bRIα 92–260). The assay can be described thus: biochemical. Also noted: Focal molography, immobilised cAMP analogue, PKA-R as analyte; KD at 293 K from van't Hoff fit. As to conditions: 293 K, van't Hoff fit. From the text:
In this study, we use focal molography to investigate the interaction between the cAMP binding domain A of the bovine R subunit Iα of PKA (bRIα 92–260) (PKA-R) and cyclic AMP (cAMP) analogues in both buffer and 50% human serum. The R-subunit inhibits protein kinase activity of the catalytic subunit of PKA by direct binding. By quantifying kinetic and thermodynamic parameters across a physiological temperature range, we examine how the biological environment alters the enthalpic and entropic contributions to binding. […] In order to determine the kinetic parameters of the PKA-R–cAMP interaction, multi cycle kinetic experiments were conducted in both buffer and 50% human serum at 20^◦C with intermediate regeneration. […] The sensor maintained reliable performance in both conditions, with no evidence of non-specific binding in serum. During these experiments, optimal experimental settings were refined iteratively to achieve the ideal flow rates and best transition times between association and dissociation phase. […] To mitigate this, buffer A was supplemented with bovine serum albumin (BSA) at a concentration of 1 mg/mL, which successfully eliminated sample depletion. […] Fig 8 summarizes the resulting thermodynamic parameters calculated at 293 K (see S1 Table for data). For both ligands, binding to PKA-R remains highly favorable in both media, with ΔG values around −10 kcal/mol yielding similar affinities. However, the underlying driving forces appear to differ between buffer and serum. […] In contrast, the interaction in 50% serum becomes more enthalpy driven for both ligands. For 6-AH-cAMP, ΔH drops to −7.4 kcal/mol, while the entropic contribution increases to −2.6 kcal/mol. For 8-AHA-cAMP, the transition is even more striking: binding becomes entirely enthalpy driven in serum, with an unfavorable entropy change (−T ΔS = 1.2 kcal/mol) and a strong enthalpic contribution (ΔH = −11.3 kcal/mol). All thermodynamic parameters were extracted from the linear fits to the van’t Hoff plots via standard error propagation from the covariance matrix returned by the linear regression. Specifically, standard deviations for ΔH, ΔS, and ΔG were calculated using the variances and covariances of the fitted slope and intercept. The reported KD values represent the predicted equilibrium dissociation constants at 293 K based on the linear fits, with associated uncertainties derived from the propagated variance in ln(KD).

[3] abbreviates: 50% human serum, read-out: KD [nM] Focal Mol. (Serum).
[4] abbreviates: buffer, read-out: KD [nM] Focal Mol. (Buffer).

T1 sequence (P00514 93-261): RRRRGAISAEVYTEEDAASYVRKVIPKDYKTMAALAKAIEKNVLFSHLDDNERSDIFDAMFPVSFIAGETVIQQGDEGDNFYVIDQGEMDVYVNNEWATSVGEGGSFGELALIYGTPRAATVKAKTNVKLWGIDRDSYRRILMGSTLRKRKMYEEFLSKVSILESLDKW

The term Kd denotes a measure of binding affinity in units of concentration. Usually koff stands for the first-order rate constant of dissociation. Usually kon stands for a measure of how fast the partners come together. With `NCCCCCCNc1ncnc2c1ncn2[C@@H]1O[C@@H]2COP(=O)(O)O[C@H]2[C@H]1O` [6-AH-cAMP, N^6-(6-Aminohexyl)adenosine-3^′,5^′-cyclic monophosphate], the values for the Kd in assay [1] (50% human serum), in assay [2] (setting [3]) and in assay [2] (setting [4]) were 25.4 nM, 36.6 ± 0.4 nM and 29.5 ± 0.9 nM, respectively. The koff in assay [1] (50% human serum) is 0.0122 s⁻¹; in assay [1] (buffer A) it was 0.013 s⁻¹. For the same compound, the results for the kon in assay [1] (50% human serum) and in assay [1] (buffer A) were 506000 M⁻¹ s⁻¹ and 448000 M⁻¹ s⁻¹, respectively.
For the compound `NCCCCCCNc1nc2c(N)ncnc2n1[C@@H]1O[C@@H]2COP(=O)(O)O[C@H]2[C@H]1O` [8-AHA-cAMP, 8-(6-Aminohexylamino)adenosine-3^′,5^′-cyclic monophosphate], the dissociation constant Kd amounted to 33.9 nM in assay [1] (50% human serum), 31 ± 3.4 nM in assay [2] (setting [3]) and 25.5 ± 2.5 nM in assay [2] (setting [4]). The koff in assay [1] (50% human serum) came to 0.0165 s⁻¹; in assay [1] (buffer A), 0.0129 s⁻¹. The on-rate (kon) was found to be 487000 M⁻¹ s⁻¹ in assay [1] (50% human serum) and 389000 M⁻¹ s⁻¹ in assay [1] (buffer A).
